Experiments:
[1] = tested on: recognition of C3bi by antibody 12.1F9; assay: Inhibition of binding of 12.1F9 to E^C3bi by peptides; set-up: species or system human; conditions: peptides 50 μg/ml; for Adherence index: normalized to control value of 100, 6 experiments
From the text: Values are normalized to a control value of 100; data are expressed as the mean±SD of 6 experiments with duplicate wells.

[2] = tested on: Factor Xa procoagulant activity on THP-1 cells; assay: Generation of Factor Xa by monocytes (THP-1), clotting assay; type: cell-based; conditions: for reduction of Factor Xa production: 0.5 mM, vs scrambled FHA II, 20 min; for Factor Xa / Clotting time: peptides 0.5 mM; for Clotting time: mean ± SD of at least 3 experiments
Protocol: Factor Xa generation was determined by a modification of the method of Miletich et al. (1978), J. Biol. Chem. 253: 6908-6916. THP-1 cells (ATCC; […]) resuspended in RPMI 1640 (Bio Whittaker, Walkersville,Md.) were incubated with 100 μM ADP (Sigma), 2.5 mM CaC2, 1 or 5 μg/ml Factor X (Hematologic Technologies Inc.) and 0.5 mM peptides at room temperature. After 20 minutes, 100 μl of the reaction mixture was transferred to 37° C. and supplemented with 100 μl of bovine factor VII- and Factor X-deficient plasma (Sigma). Coagulation was initiated by adding 100 μl of 25 mM CaC2 and the clotting time was determined. Factor Xa procoagulant activity (ng/ml) was calculated by means of a standard curve constructed by serial concentrations of Factor Xa (Hematologic Technologies Inc.) from 50 to 250 ng/ml.

[3] = tested on: transendothelial migration of human neutrophils through HUVEC monolayers; assay: Transendothelial migration (TEM) of neutrophils; type: cell-based; conditions: peptides 0.01 mM, native FHA 1 μM; at least 3 experiments with 6 wells/peptide
From the text: FIG. 26 is a graphical representation of the inhibition of transendothelial migration of neutrophils by FHA peptide Ca, native FHA and mAb IB4 in a concentration dependent fashion. FHA peptide Ca (.largecircle.); intact FHA (.quadrature.); and mAb IB4 (.tangle-solidup.). Values represent mean±standard deviation of at least 3 experiments with 6 wells/peptide.
Transendothelial migration of neutrophils was studied based on a method described by Muller et al. (1992), J. Exp. Med. 176: 819-828. Briefly, human neutrophils suspended in ice-cold Hanks balanced salt solution (HBSS) containing Ca^++ and Mg^++ (Sigma) were fluoresceinated by adding 3.3 μl/ml 5-(and 6-)carboxyfluorescein diacetate, succinimidyl ester (CFSE, Molecular Probes Inc., Oreg.). After incubation for 30 mins. on ice, neutrophils were washed twice in cold HBSS with Ca^++ and Mg^++ and resuspended in cold Medium 199 (M199, Sigma) to a final concentration of 10^6 /ml. Human umbilical vein endothelial cells were subcultured at confluence into 96-well tissue culture plates (Becton Dickinson Labware, Lincoln Park, N.J.) that were coated with hydrated collagen gel (Vitrogen; Collagen Corporation, Palo Alto, Calif.) and fibronectin. Endothelial cells were stimulated with 10 ng/ml TNF-alpha for 4 hours and washed three times with warm M199. Neutrophils (10^6 /ml) were preincubated with 0.01 mM of peptides or with 1 μM of native FHA in M199 for 5 mins. on ice before they were added in 100 μl aliquots to the endothelial cells. For positive control, neutrophils were pre-incubated with 25 μg/ml anti-CD18 mAb IB4. For negative control, neutrophils were treated with 25 μg/ml mAb W6/32 against HLA class I antigen (Dako, Carpinteria, Calif.). The cells were incubated for 1 hour at 37° C., 5% CO2. To terminate transmigration, the supernatant fluid was aspirated and the wells were filled with warm 1 mM EGTA (Sigma) in HBSS without Ca and Mg. The plates were covered with plate sealers (Dynatech, Alexandria, Va.) and centrifuged in an inverted position at 250 g for 3 mins. at room temperature. To remove residual non-transmigrated neutrophils from the endothelial cells, monolayers were washed twice with 200 μl of warm Hanks solution without Ca and Mg. Fluorescence was quantitated using a fluorescence counter (Millipore Cytofluorm™ 2300). The percentage of transmigrated neutrophils was determined by comparing the amount of fluorescence of test wells with that measured in collagen- and fibronectin-coated wells without endothelial cells. […] Percent inhibition of transendothelial migration of neutrophils was calculated by comparing the number of transmigrated cells in wells containing neutrophils treated with peptide to neutrophils treated with M199 alone and arbitrarily set at 100% transendothelial migration (TEM).
(§1) The procedures for determining the neutrophil adherence to cultured endothelial cells and the transendothelial migration of neutrophils were identical with those of Example 9. Control values were the same as those shown in Example 9.

Factor X binding to CR3 = conditions: cited from earlier work
[4] = tested on: neutrophil adherence to human umbilical vein endothelial cells (HUVEC); assay: Adherence of neutrophils to cultured (TNF alpha stimulated) endothelial cells; type: cell-based
Protocol: FIG. 17 is a bar graph representation of the inhibition of neutrophil adherence to activated endothelial cells by FHA, Factor X- and FHA- derived peptides. The concentration of inhibiting substances was: peptides 0.5 mM, native FHA 0.3 μM. Values represent the mean±standard deviation of 4 experiments with 5 wells/peptide.
FIG. 18 is a graphical representation of the FHA, FHA- or Factor X-peptide concentration effects on the inhibition of neutrophil adherence to activated endothelial cells. FHA peptide II monomer (Square) and trimer (Diamond), Factor X peptide II (Circle) at 10^-9 μM to 0.5 mM; native FHA at 10^-6 to 3×10^2 μM (triangle). Values represent the mean of 3 experiments with 5 wells/peptide (standard deviations <15%).
FIG. 25 is a graphical representation of the inhibition of neutrophil adherence to activated endothelial cells by FHA and FHA peptides. FIG. 25A: Peptide concentrations were 0.5 mM (FHA 0.2 μM). Values represent mean±standard deviation of four experiments with 5 wells/peptide; FIG. 25B represents the mean±standard deviation of triplicate experiments with 5 wells/peptide. Native FHA (.quadrature.); FHA peptide Ca (.largecircle.).
Human umbilical vein endothelial cells (HUVEC, first passage, Clonetics, San Diego, Calif.) were subcultured at confluence into Terasaki tissue culture wells. After 24 hours, confluent monolayers were used for adherence assays. Monolayers were stimulated with 10 ng/ml TNF alpha (Boehringer Mannheim, Indianapolis, Ind.) at 37° C. for four hours. 30 μl of human neutrophils (10^6 /ml) were labeled with fluorescein by the method of Lo et al. (1991), J. ExP. Med. 173 1493-1500, and preincubated for 15 minutes at 37° C. with 20 μl of peptides (0.5 mM in HAP) or HAP (phosphate buffered saline containing 0.5 mg/ml human serum albumin, 3 mM glucose, and 0.3 U/ml aprotinin) as a control buffer. For some experiments, endothelial cells were pretreated from 10 minutes with Factor X or antibodies against Factor X receptor (EPR-1; Altieri et al. (1990), J. Immunol. 145, 246-253) 12H1 and 9D4 (obtained from Dr. D. Altieri, Scripps Research Institute, LaJolla, Calif.) and then washed. Neutrophils were allowed to adhere to the monolayer for 15 mins. at 37° C. and unbound cells were removed by submersion of the plate in PBS buffer. The number of adherent neutrophils was counted in a 40× microscope field and expressed as a percentage of adherence in control wells with neutrophils treated with HAP buffer alone. The mAb IB4 against CD18 (50 μg/ml; Merck Inc., Rahway, N.J.) served as a positive control.
The ability of FHA peptides and anti-CD18 or anti-Factor X receptor antibodies to interact cooperatively to inhibit neutrophil adherence to endothelial cells was assessed by measuring neutrophil adherence to endothelial cells in the presence of antibody as well as antibody plus peptide. […] Anti-Factor X receptor mAb 12H1 (10 μl of ascites) or 9D4 (10 μg/ml) were added to the endothelial cell monolayers 10 min before the assay. The peptides were added at 5 μg/ml. The results are shown in Table 8 where the numerical values are in % of control binding.
as §1

B. pertussis = conditions: in vivo; cited from earlier work
CSF leukocytosis = assay: Rat meningitis model (LOS): CSF leukocytosis; type: in vivo, female Wistar rats; conditions: 4 hours after LOS
Protocol: The experiments were performed according to established protocols (Wispelway et al., 1988, J. Clin. Invest., 82: 1339-1346). Purified Haemophilus influenzae type b strain DL42 lipooligosaccharide (LOS) was prepared for inoculation by sonication for 30 minutes, dilution to the desired concentration (20 ng/50 μl) in normal saline or PBS, and sonication for an additional 15 to 30 minutes just prior to use.
(§2) Briefly, anesthetized female Wistar rats were placed under a micromanipulator and inoculated intracisternally with a 25 gauge needle. After removal of 50 μl of CSF (without visible blood contamination), rats were inoculated intracisternally with 50 μl (20 ng) of LOS using a 1 ml syringe with a 25 gauge needle. Ten to fifteen minutes after inoculation with LOS, the rats were treated by intravenous administration of the test substance: a solution of an FHA peptide in PBS, a solution of a control peptide in PBS, or an equal volume of PBS alone.
(§3) Three hours after LOS inoculation, 5 μCi of ^125 I-radiolabelled albumin in 50 μl normal saline was administered intravenously. One hour later, CSF was collected via intracisternal puncture and blood samples were collected via intracardiac puncture. CSF leukocytosis was determined by manually counting white blood cells using a hemacytometer, and blood-brain barrier permeability was determined as the percent of radioactivity in whole blood that was present in the CSF. Blood samples were obtained immediately prior to inoculation, immediately prior to treatment, and at 4 hours post-inoculation for determination of peripheral white blood cell concentrations.

[5] = tested on: blood-brain barrier permeability; assay: Rat meningitis model (LOS): blood-brain barrier permeability (125I-albumin); type: in vivo, female Wistar rats; conditions: 100 nmol; percent of radioactivity in whole blood present in CSF
Protocol: as §2, §3

Compound | Adherence index [1] | Factor Xa [2] | Clotting time [2] | % Inhibition of TEM [3] | further results
VTVGRGDPAQG [FHA RGD] | 85 ± 9 |  |  |  | 
GLIQGRSVKVD [FHA Ib] |  | 31.3 ng/mL | 38.0 ± 7.6 s | 7 ± 10% | reduction of Factor Xa production [2]: 81%
IDRSMKTRG [Factor X III] |  | 107.5 ng/mL | 26.5 ± 2.4 s | 5 ± 7% | inhibition of binding of CR3 bearing cells to Factor X (in words) (Factor X binding to CR3): competitively inhibit the binding of CR3 bearing tissue culture cells to purified Factor X; effect on Factor Xa generation (in words) [2]: substantial reduction that did not reach statistical significance
GRTRG (UniProt P12255 32-36, looked up, fragment) [FHA III] |  | 43.4 ng/mL | 36.2 ± 2.7 s | 5 ± 6% | inhibition of neutrophil adherence (in words) ([4]; peptides 0.5 mM (Example 9)): less effective than the corresponding Factor X derived peptide; reduction of Factor Xa production [2]: 74%
YTVSADAIALA [FHA 1408-1418] | 21 ± 11 |  |  |  | block of binding of 12.1F9 to E^C3bi [1]: up to 60%
OC[C@H]1O[C@@H](O[C@H]2[C@H](O)[C@@H](O)C(O)O[C@@H]2CO)[C@H](O)[C@@H](O)[C@H]1O (stereo partly drawn) [Lactose] |  |  |  |  | colonization of rabbit lung (in words) (B. pertussis): decrease colonization of rabbit lung
Ac-VEEDTKG-NH2 [scrambled ac/am FHA II, VEEDTKG] |  |  |  |  | Leukocytosis (CSF) (CSF leukocytosis; 600 nmol i.v.): 14,287 ± 10,199 cells/ml; Leukocytosis (CSF) (CSF leukocytosis; 600 nmol i.v., listed as control peptide (scrambled ac/am FHA II)): approximately 14,000 cells/ml
CC(=O)N[C@@H](CC(C)C)C(=O)N[C@@H](CC(C)C)C(=O)N[C@H](C=O)CCCNC(=N)N [Leupeptin, reference compound] |  | < 10.0 ng/mL |  |  | 
IDVPQHGGAMRDLGIAQGKD [scrambled FHA Ca] |  |  |  |  | Leukocytosis (CSF) (CSF leukocytosis; 100 nmol i.v.): 20,700 ± 7,400 cells/ml; Leukocytosis (CSF) (CSF leukocytosis; 100 nmol i.v., listed as control peptide (scrambled FHA Ca)): approximately 20,000 cells/ml; BBB permeability [5]: 6.74 ± 3.48%
YTVAIAGYALA [C3-pep 1187-1197] | 30 ± 16 |  |  |  | block of binding of 12.1F9 to E^C3bi [1]: up to 60%
GLYQAKRFKVG [Factor X I] |  | 37.8 ng/mL | 37.0 ± 4.0 s | 10 ± 6% | inhibition of binding of CR3 bearing cells to Factor X (in words) (Factor X binding to CR3): competitively inhibit the binding of CR3 bearing tissue culture cells to purified Factor X; effect on Factor Xa generation (in words) [2]: substantial reduction that did not reach statistical significance
FHA peptide A: synthetic peptide, residues 1055-1099, SEQ ID NO: 20 (IGALKAGAVEAASPRRARRALRQDFFTPGSVVVRAQGNVTVGRGD; UniProt P12255 1055-1099, looked up, fragment) |  |  |  |  | inhibition of neutrophil adherence ([4]; 45/50-mer peptides, FHA peptide C 1 mg/ml, 0.2 mM): < 15%
TRYRGDQDATMS [C3/12, reference compound] | 127 ± 27 |  |  |  | 

Reference: patent publication US5792457A, “Antibody recognizing endothelial cell ligand for leukocyte CR3” (priority 1995, dated 1998)
